ChEMBL document CHEMBL4725357, “Elucidating the Structural Requirement of Uridylpeptide Antibiotics for Antibacterial Activity” (J Med Chem, 2020)
In brackets after ≈: the same amount, converted by molar mass.

Assays:
[1] = Inhibition of Staphylococcus aureus MraY using UDPMurNAc-dansylpentapeptide as substrate incubated for 3 hrs by fluorescence method
Pseudomonas aeruginosa = test: Antibacterial activity against Pseudomonas aeruginosa PAO1 incubated for 18 hrs by CLSI based broth microdilution method; type: functional

| SMILES | IC50 [1] | MIC (Pseudomonas aeruginosa) |
| --- | --- | --- |
| C[C@@H]([C@H](NC(=O)[C@H](Cc1c[nH]c2ccccc12)NC(=O)N[C@@H](Cc1c[nH]c2ccccc12)C(=O)O)C(=O)N/C=C1\O[C@@H](n2ccc(=O)[nH]c2=O)[C@H](O)[C@@H]1O)N(C)C(=O)[C@@H](N)Cc1cccc(O)c1 | 0.44 nM | 32 µg/mL (≈ 34.2 µM) |
| CC(=O)N[C@@H](C)C(=O)N[C@H](C(=O)N/C=C1\O[C@@H](n2ccc(=O)[nH]c2=O)[C@H](O)[C@@H]1O)[C@H](C)N(C)C(=O)[C@@H](N)Cc1cccc(O)c1 | > 1000 nM |  |
| C[C@@H]([C@H](NC(=O)[C@H](Cc1cnc[nH]1)NC(=O)N[C@@H](Cc1c[nH]c2ccccc12)C(=O)O)C(=O)N/C=C1\O[C@@H](n2ccc(=O)[nH]c2=O)[C@H](O)[C@@H]1O)N(C)C(=O)[C@@H](N)Cc1cccc(O)c1 | 2.8 nM | > 128 µg/mL |
| C[C@@H]([C@H](NC(=O)CNC(=O)N[C@@H](Cc1c[nH]c2ccccc12)C(=O)O)C(=O)N/C=C1\O[C@@H](n2ccc(=O)[nH]c2=O)[C@H](O)[C@@H]1O)N(C)C(=O)[C@@H](N)Cc1cccc(O)c1 | 4.2 nM | > 128 µg/mL |
| C[C@@H]([C@H](NC(=O)[C@@H]1CCCN1C(=O)N[C@@H](Cc1c[nH]c2ccccc12)C(=O)O)C(=O)N/C=C1\O[C@@H](n2ccc(=O)[nH]c2=O)[C@H](O)[C@@H]1O)N(C)C(=O)[C@@H](N)Cc1cccc(O)c1 | > 500 nM | > 128 µg/mL |
| CC(C)C[C@H](NC(=O)[C@@H](NC(=O)N[C@H](C(=O)O)C(C)C)[C@@H]1CCNC(=N)N1)C(=O)NCCCN[C@H](C(=O)O)[C@H](O[C@@H]1O[C@H](CN)[C@@H](O)[C@H]1O)[C@H]1O[C@@H](n2ccc(=O)[nH]c2=O)[C@H](O)[C@@H]1O [MURAMYCIN D2] | 2.8 nM |  |

Results, then the compound that gave them:

| IC50 [1] | MIC (Pseudomonas aeruginosa) | SMILES |
| --- | --- | --- |
| 1.6 nM | 128 µg/mL (≈ 150 µM) | C[C@@H]([C@H](NC(=O)[C@H](CS)NC(=O)N[C@@H](Cc1c[nH]c2ccccc12)C(=O)O)C(=O)N/C=C1\O[C@@H](n2ccc(=O)[nH]c2=O)[C@H](O)[C@@H]1O)N(C)C(=O)[C@@H](N)Cc1cccc(O)c1 |
| 7.6 nM | > 128 µg/mL | C[C@@H]([C@H](NC(=O)[C@H](CC(=O)O)NC(=O)N[C@@H](Cc1c[nH]c2ccccc12)C(=O)O)C(=O)N/C=C1\O[C@@H](n2ccc(=O)[nH]c2=O)[C@H](O)[C@@H]1O)N(C)C(=O)[C@@H](N)Cc1cccc(O)c1 |
| 1.8 nM | > 128 µg/mL | C[C@@H]([C@H](NC(=O)[C@H](CO)NC(=O)N[C@@H](Cc1c[nH]c2ccccc12)C(=O)O)C(=O)N/C=C1\O[C@@H](n2ccc(=O)[nH]c2=O)[C@H](O)[C@@H]1O)N(C)C(=O)[C@@H](N)Cc1cccc(O)c1 |
| 3.4 nM | > 128 µg/mL | C[C@@H]([C@H](NC(=O)[C@H](CCCNC(=N)N)NC(=O)N[C@@H](Cc1c[nH]c2ccccc12)C(=O)O)C(=O)N/C=C1\O[C@@H](n2ccc(=O)[nH]c2=O)[C@H](O)[C@@H]1O)N(C)C(=O)[C@@H](N)Cc1cccc(O)c1 |
| 3.3 nM | 128 µg/mL (≈ 146 µM) | C[C@@H]([C@H](NC(=O)[C@H](CCC(=O)O)NC(=O)N[C@@H](Cc1c[nH]c2ccccc12)C(=O)O)C(=O)N/C=C1\O[C@@H](n2ccc(=O)[nH]c2=O)[C@H](O)[C@@H]1O)N(C)C(=O)[C@@H](N)Cc1cccc(O)c1 |
| 1.8 nM | > 128 µg/mL | C[C@@H]([C@H](NC(=O)[C@H](CCCCN)NC(=O)N[C@@H](Cc1c[nH]c2ccccc12)C(=O)O)C(=O)N/C=C1\O[C@@H](n2ccc(=O)[nH]c2=O)[C@H](O)[C@@H]1O)N(C)C(=O)[C@@H](N)Cc1cccc(O)c1 |
| 1.3 nM | 128 µg/mL (≈ 146 µM) | C[C@@H]([C@H](NC(=O)[C@H](CCC(N)=O)NC(=O)N[C@@H](Cc1c[nH]c2ccccc12)C(=O)O)C(=O)N/C=C1\O[C@@H](n2ccc(=O)[nH]c2=O)[C@H](O)[C@@H]1O)N(C)C(=O)[C@@H](N)Cc1cccc(O)c1 |
| 2.1 nM | > 128 µg/mL | C[C@@H]([C@H](NC(=O)[C@H](CC(N)=O)NC(=O)N[C@@H](Cc1c[nH]c2ccccc12)C(=O)O)C(=O)N/C=C1\O[C@@H](n2ccc(=O)[nH]c2=O)[C@H](O)[C@@H]1O)N(C)C(=O)[C@@H](N)Cc1cccc(O)c1 |
